Activity calls are given as the source filed them. No cut-off for these calls is given here.
Legend:
[1] = target: T1, NAD-dependent protein deacylase sirtuin-6 (Homo sapiens, UniProt Q8N6T7); test: Inhibition of human SIRT6 deacetylase activity using Arg-His-Lys-Lys(AC)-AMC as a substrate by fluorescence assay
[2] = target: T1, NAD-dependent protein deacylase sirtuin-6; test: Inhibition of human recombinant SIRT6 deacetylase activity using Arg-His-Lys-Lys(AC)-AMC as a substrate by […] assay
[3] = target: T1, NAD-dependent protein deacylase sirtuin-6; test: Inhibition of SIRT6 in human BxPC-3 cells assessed as increase in radiolabelled glucose uptake at 100 uM after 18 hrs by fluorescence plate reader relative to control; type: cell-based
[4] = target: Protein Sirt6 (Rattus norvegicus) (UniProt A6K863); test: Inhibition of SIRT6 in rat L6 cells assessed as increase in radiolabelled glucose uptake at 100 uM after 18 hrs by fluorescence plate reader relative to control; type: cell-based
Sequence of Protein Sirt6 (Rattus norvegicus) (A6K863 as listed by the source): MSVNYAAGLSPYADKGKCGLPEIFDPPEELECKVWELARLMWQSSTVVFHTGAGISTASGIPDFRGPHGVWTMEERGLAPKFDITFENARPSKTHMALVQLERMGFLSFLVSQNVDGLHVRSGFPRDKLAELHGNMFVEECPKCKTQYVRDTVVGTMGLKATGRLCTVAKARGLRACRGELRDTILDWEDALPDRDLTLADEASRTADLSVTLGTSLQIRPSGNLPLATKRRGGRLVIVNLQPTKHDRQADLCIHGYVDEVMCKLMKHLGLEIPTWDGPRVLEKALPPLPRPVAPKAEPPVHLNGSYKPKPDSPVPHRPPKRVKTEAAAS

[5] = target: T2, NAD-dependent protein deacetylase sirtuin-1 (Homo sapiens, UniProt Q96EB6); test: Inhibition of human SIRT1 deacetylase activity using Arg-His-Lys-Lys(AC)-AMC as a substrate by fluorescence assay
T2 sequence (Q96EB6 whole entry): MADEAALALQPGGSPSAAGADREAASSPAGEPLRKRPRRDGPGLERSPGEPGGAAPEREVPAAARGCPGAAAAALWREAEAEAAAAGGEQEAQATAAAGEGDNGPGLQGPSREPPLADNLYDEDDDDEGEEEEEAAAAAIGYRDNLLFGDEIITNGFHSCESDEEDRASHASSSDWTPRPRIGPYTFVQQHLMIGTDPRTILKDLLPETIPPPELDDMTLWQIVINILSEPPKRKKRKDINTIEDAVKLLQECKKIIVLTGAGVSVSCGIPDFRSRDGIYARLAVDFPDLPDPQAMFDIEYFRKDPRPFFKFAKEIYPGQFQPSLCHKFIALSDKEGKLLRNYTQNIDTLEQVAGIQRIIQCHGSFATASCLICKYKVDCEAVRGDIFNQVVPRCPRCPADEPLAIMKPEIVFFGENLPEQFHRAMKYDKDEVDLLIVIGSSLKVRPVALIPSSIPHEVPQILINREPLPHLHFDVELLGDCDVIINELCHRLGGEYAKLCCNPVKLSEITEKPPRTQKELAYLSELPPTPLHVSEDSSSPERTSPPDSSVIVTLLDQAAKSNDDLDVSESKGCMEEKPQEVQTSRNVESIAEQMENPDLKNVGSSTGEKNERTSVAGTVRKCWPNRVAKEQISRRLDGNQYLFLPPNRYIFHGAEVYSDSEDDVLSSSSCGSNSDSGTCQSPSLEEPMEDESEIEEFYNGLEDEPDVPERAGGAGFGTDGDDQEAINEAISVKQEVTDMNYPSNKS

[6] = species on record: Homo sapiens; test: Selectivity ratio of IC50 for human SIRT1 to IC50 for human SIRT6
[7] = target: T3, NAD-dependent protein deacetylase sirtuin-2 (Homo sapiens, UniProt Q8IXJ6); test: Inhibition of human SIRT2 deacetylase activity using Arg-His-Lys-Lys(AC)-AMC as a substrate by fluorescence assay
T3 sequence (Q8IXJ6 whole entry): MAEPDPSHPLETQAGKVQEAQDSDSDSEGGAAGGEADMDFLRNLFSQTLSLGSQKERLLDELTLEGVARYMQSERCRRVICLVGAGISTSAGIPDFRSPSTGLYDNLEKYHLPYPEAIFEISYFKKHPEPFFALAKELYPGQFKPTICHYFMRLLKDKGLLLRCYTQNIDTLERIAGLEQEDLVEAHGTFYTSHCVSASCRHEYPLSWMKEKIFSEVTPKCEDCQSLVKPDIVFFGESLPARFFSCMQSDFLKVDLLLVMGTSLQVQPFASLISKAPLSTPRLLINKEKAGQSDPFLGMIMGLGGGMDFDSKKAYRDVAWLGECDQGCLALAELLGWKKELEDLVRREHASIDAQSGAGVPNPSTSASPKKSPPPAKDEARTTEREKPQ

[8] = target: T1, NAD-dependent protein deacylase sirtuin-6; test: Competitive inhibition of human recombinant SIRT6 deacetylase activity using NAD+ as a substrate at 50 uM by double-reciprocal plot analysis
[9] = target: Protein Sirt6 (Rattus norvegicus) (UniProt A6K863); test: Inhibition of SIRT6 in rat L6 cells assessed as increase in 2-NBDG uptake at 100 uM after 18 hrs by fluorescence plate reader relative to control; type: cell-based
[10] = species on record: Homo sapiens; test: Selectivity ratio of IC50 for human SIRT2 to IC50 for human SIRT6
[11] = target: T1, NAD-dependent protein deacylase sirtuin-6; test: Inhibition of SIRT6 in human BxPC-3 cells assessed as increase in H3K9 acetylation by immunoblotting assay relative to control; type: cell-based
[12] = Cytotoxicity against human BxPC3 cells assessed as cell viability at 30 uM after 72 hrs by CellTiter96 Aqueous1 assay; type: cell-based, BXPC-3; conditions: BxPC3 cells, read-out: Activity
[13] = target: T1, NAD-dependent protein deacylase sirtuin-6; test: Competitive inhibition of human recombinant SIRT6 deacetylase activity using Arg-His-Lys-Lys(AC)-AMC as a substrate at 50 uM by double-reciprocal plot analysis
[14] = system: CAPAN-1; test: Induction of DNA damage in human BRCA2-deficient Capan1 cells assessed as increase in gammaH2AX levels at 8 uM after 24 hrs by confocal microscopy; type: functional, cell-based
[15] = system: CAPAN-1; test: Induction of DNA damage in human BRCA2-deficient Capan1 cells assessed as increase in gammaH2AX levels at 8 uM after 24 hrs by flow cytometry analysis; type: functional, cell-based
[16] = Cytotoxicity against human HEK293 cells assessed as cell viability using propidium iodide by flow cytometry; type: cell-based; conditions: read-out: Activity
[17] = system: CAPAN-1; test: Induction of DNA damage in human BRCA2-deficient Capan1 cells assessed as increase in gammaH2AX levels at 100 uM after 24 hrs by flow cytometry analysis; type: functional, cell-based
[18] = target: T1, NAD-dependent protein deacylase sirtuin-6; test: Inhibition of human SIRT6 in […] Capan1 cells assessed as potentiation of NU1025-induced cytotoxicity by measuring cell viability at 100 uM after 7 days by CellTiter96 Aqueous1 assay; type: cell-based; conditions: CAPAN-1
[19] = target: T1, NAD-dependent protein deacylase sirtuin-6; test: Inhibition of SIRT6 in human PBMC assessed as inhibition of PHA-induced TNF alpha production at 200 uM after 3 days by ELISA
[20] = target: T1, NAD-dependent protein deacylase sirtuin-6; test: Inhibition of human SIRT6 in BRCA2-deficient Capan1 cells assessed as potentiation of olaparib-induced DNA damage by measuring gammaH2AX levels at 100 uM after 24 hrs by flow cytometry analysis; type: cell-based; conditions: CAPAN-1
[21] = target: T1, NAD-dependent protein deacylase sirtuin-6; test: Inhibition of human SIRT6 in BRCA2-deficient Capan1 cells assessed as potentiation of olaparib-induced DNA damage by measuring gammaH2AX levels at 100 uM after 24 hrs by confocal microscopy; type: cell-based; conditions: CAPAN-1
[22] = target: T1, NAD-dependent protein deacylase sirtuin-6; test: Inhibition of SIRT6 in human PBMC assessed as inhibition of MLR-induced TNF alpha production at 200 uM after 3 days by ELISA
[23] = target: T1, NAD-dependent protein deacylase sirtuin-6; test: Inhibition of human SIRT6 in BRCA2-deficient Capan1 cells assessed as potentiation of olaparib-induced DNA damage by measuring cell viability at 100 uM after 7 days by CellTiter96 Aqueous1 assay; type: cell-based; conditions: CAPAN-1
[24] = target: T1, NAD-dependent protein deacylase sirtuin-6; test: Inhibition of SIRT6 in human BxPC3 cells assessed as reduction in TNF alpha production by ELISA; type: cell-based; conditions: BXPC-3, concentration not given here
[25] = system: CAPAN-1; test: Induction of DNA damage in human BRCA2-deficient Capan1 cells assessed as increase in gammaH2AX levels at 100 uM after 24 hrs by confocal microscopy; type: functional, cell-based

T1 sequence (Q8N6T7 whole entry): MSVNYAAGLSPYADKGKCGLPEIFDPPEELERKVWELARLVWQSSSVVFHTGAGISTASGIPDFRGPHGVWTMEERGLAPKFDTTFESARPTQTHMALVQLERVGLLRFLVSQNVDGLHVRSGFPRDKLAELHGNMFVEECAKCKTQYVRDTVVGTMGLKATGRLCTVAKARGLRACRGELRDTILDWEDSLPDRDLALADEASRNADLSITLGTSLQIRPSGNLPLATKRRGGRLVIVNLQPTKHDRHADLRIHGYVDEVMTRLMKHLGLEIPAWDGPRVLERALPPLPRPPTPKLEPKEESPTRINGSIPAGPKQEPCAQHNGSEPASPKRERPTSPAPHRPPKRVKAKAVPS

With O=c1[nH]c(=O)c2cc(S(=O)(=O)Nc3ccccc3-c3ccccc3)ccc2[nH]1 the IC50 [1] was 137 µM and the IC50 [2] was 137 µM.

In the case of Cn1ccc2cc(NS(=O)(=O)c3ccc4[nH]c(=O)[nH]c(=O)c4c3)ccc21, the IC50 [2] is reported as 82 µM.

O=c1[nH]c(=O)c2cc(S(=O)(=O)NCc3cccc(Cn4ccnc4)c3)ccc2[nH]1 showed an IC50 [2] of 2870 µM.

Cn1c(=O)c2cc(S(=O)(=O)Nc3ccc(Cc4ccncc4)cc3)ccc2n(C)c1=O gave a fold increase in glucose uptake [3] of 1.9 fold, a fold increase in glucose uptake [4] of 4 fold and an IC50 [5] of 6520 µM. For the same molecule, the IC50 [1] was 49 µM, the Ratio IC50 [6] was 133 and the IC50 [7] was 242 µM. For the same molecule, the inhibition [8] was “Active”, the fold increase in 2-NBDG uptake [9] was 3.1 fold and the Ratio IC50 [10] was 4.94. It also gave a fold increase in H3K9 acetylation [11] of 1.6 fold, a viability at 72 h, 30 µM [12] of 75% and an IC50 [2] of 38 µM. For the same molecule, the inhibition [13] was “Active”.

For O=C(c1cc(Cc2n[nH]c(=O)c3ccccc23)ccc1F)N1CCN(C(=O)C2CC2)CC1, the Activity [14] was “Active” and the Activity [15] was “Active”.

Cn1c(=O)sc2cc(S(=O)(=O)Nc3ccc(Oc4cccnc4)cc3)ccc21 gave an IC50 [1] of 77 µM and an IC50 [2] of 102 µM.

CC(=O)Nc1ccc(S(=O)(=O)Nc2ccc(Oc3cccnc3)cc2)cc1 showed an IC50 [1] of 297 µM and an IC50 [2] of 242 µM.

In the case of O=c1[nH]c(=O)c2cc(S(=O)(=O)Nc3ccc(Oc4cccnc4)cc3)ccc2[nH]1, the fold increase in glucose uptake [3] is reported as 1.3 fold, the viability [16] is reported as > 50% and the Activity [17] is reported as “Active”. The Activity [18] was “Active”, the inhibition [19] was 52% and the Activity [20] was “Active”. The Activity [21] was “Active”, the fold increase in glucose uptake [4] was 2 fold and the Ratio IC50 [6] was 2.96. For the same molecule, the inhibition [8] was “Active”, the fold increase in 2-NBDG uptake [9] was 2.4 fold and the Ratio IC50 [10] was 1.07. The inhibition [22] was 47%, the Activity [23] was “Active” and the fold increase in H3K9 acetylation [11] was 2.2 fold. The inhibition [24] was 73%, the IC50 [2] was 136 µM and the Activity [25] was “Active”. For the same molecule, the inhibition [13] was “Active”.
